Reference: patent US10975119B2, “Selective cysteine protease inhibitors and uses thereof” (Genesis Technologies Limited, priority 2011, dated 2021)
Where a name gives a salt, the structure may show the parent alone. Read-outs that look alike come from different tables or passages of the source.

Experiments:
Assay type in all cases: biochemical
[1] = biological target: T1, Caspase-5 (Homo sapiens, UniProt P51878); assay: Caspase-5 inhibitor screening assay (BioVision kit, WEHD-AFC); conditions: for inhibition at 10 µM: read-out: % Inhibition at 10 uM Casp5; for inhibition at 100 µM: read-out: % Inhibition at 100 uM Casp5; for IC50: read-out: IC50 Casp5
T1 construct: mixing the compounds with the respective active caspases; purchased BioVision K155-100
T1 sequence (P51878 137-327 limits assumed): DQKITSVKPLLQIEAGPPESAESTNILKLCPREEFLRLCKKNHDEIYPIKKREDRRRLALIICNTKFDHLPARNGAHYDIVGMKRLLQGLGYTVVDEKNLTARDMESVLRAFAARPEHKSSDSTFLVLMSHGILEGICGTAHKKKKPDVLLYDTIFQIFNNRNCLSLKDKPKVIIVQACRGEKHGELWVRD
T1 sequence (P51878 347-434 limits assumed): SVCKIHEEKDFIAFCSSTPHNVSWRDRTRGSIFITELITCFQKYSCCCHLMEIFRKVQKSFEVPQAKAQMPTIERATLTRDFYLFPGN
Procedure: (§1) The efficacy of an array of compounds as an inhibitor of the activity of Caspases 1 through 10 were assessed by using the respective Caspase Inhibitor Drug Screening Kits (Caspase-1 Catalog #: K151-100, Caspase-2 Catalog #: K152-100, Caspase-3 Catalog #: K153-100, Caspase-4 Catalog #: K154-100, Caspase-5 Catalog #: K155-100, Caspase-6 Catalog #: K156-100, Caspase-7 Catalog #: K157-100, Caspase-8 Catalog #: K158-100, Caspase-9 Catalog #: K159-100, Caspase-10 Catalog #: K160-100, BioVision) following the instructions of the manufacturer. […] Active caspases cleaved their respective synthetic substrates to release free AFC, which was then quantified by fluorometry.
(§2) Briefly, the compounds were first tested at 2 concentrations (10 uM and 100 uM final) to determine if there is a hit. […] Each condition was tested in duplicates. […] For some samples, a smaller range of concentrations was tested depending on the % Inhibition results at 10 uM and 100 uM. Results were summarized in Tables 2, 3, and 4 herein after. Table 2 represents the IC50 values (uM) of the test compounds as inhibitors of the activity of the various caspases.
(§3) (*) RFU (no inhibitor control)—RFU (compound at a specific concentration)
(§4) RFU (no inhibitor control)

[2] = biological target: T2, Caspase-3 (Homo sapiens, UniProt P42574); assay: Caspase-3 inhibitor screening assay (BioVision kit, DEVD-AFC); conditions: for inhibition at 10 µM: read-out: % Inhibition at 10 uM Casp3; for inhibition at 100 µM: read-out: % Inhibition at 100 uM Casp3
T2 construct: mixing the compounds with the respective active caspases; purchased BioVision K153-100
T2 sequence (P42574 29-175 limits assumed): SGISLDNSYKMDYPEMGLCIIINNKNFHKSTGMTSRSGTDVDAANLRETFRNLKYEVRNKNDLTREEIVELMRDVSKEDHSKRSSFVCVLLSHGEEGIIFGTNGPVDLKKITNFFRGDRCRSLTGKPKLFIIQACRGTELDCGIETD
T2 sequence (P42574 176-277 limits assumed): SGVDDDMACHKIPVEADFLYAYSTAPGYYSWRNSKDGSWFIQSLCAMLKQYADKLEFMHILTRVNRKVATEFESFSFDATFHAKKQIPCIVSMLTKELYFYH
Procedure: as §1, §2, §3, §4

[3] = biological target: T3, Caspase-1 (Homo sapiens, UniProt P29466); assay: Caspase-1 inhibitor screening assay (BioVision kit, YVAD-AFC); conditions: for inhibition at 10 µM: read-out: % Inhibition at 10 uM Casp1; for inhibition at 100 µM: read-out: % Inhibition at 100 uM Casp1
T3 construct: mixing the compounds with the respective active caspases; purchased BioVision K151-100
T3 sequence (P29466 120-297 limits assumed): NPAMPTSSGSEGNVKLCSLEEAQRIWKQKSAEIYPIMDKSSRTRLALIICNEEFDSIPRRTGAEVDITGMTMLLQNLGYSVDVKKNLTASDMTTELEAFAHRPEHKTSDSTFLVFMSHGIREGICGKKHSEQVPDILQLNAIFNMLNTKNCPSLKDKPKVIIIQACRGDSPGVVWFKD
T3 sequence (P29466 317-404 limits assumed): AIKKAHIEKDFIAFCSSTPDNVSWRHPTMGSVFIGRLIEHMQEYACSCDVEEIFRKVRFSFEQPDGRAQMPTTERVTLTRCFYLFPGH
Procedure: as §1, §2, §3, §4

[4] = biological target: T4, Caspase-7 (Homo sapiens, UniProt P55210); assay: Caspase-7 inhibitor screening assay (BioVision kit, DEVD-AFC); conditions: for inhibition at 10 µM: read-out: % Inhibition at 10 uM Casp7; for inhibition at 100 µM: read-out: % Inhibition at 100 uM Casp7; for IC50: read-out: IC50 Casp7
T4 construct: mixing the compounds with the respective active caspases; purchased BioVision K157-100
T4 sequence (P55210 24-198 limits assumed): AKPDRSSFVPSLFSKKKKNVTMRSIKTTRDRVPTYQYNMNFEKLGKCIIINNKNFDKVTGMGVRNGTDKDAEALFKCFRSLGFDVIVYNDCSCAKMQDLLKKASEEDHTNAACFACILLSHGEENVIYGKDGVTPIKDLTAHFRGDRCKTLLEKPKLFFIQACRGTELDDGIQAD
T4 sequence (P55210 207-303 limits assumed): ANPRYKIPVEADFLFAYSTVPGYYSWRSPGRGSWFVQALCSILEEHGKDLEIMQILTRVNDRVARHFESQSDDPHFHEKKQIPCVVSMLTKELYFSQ
Procedure: as §1, §2, §3, §4

SMILES | inhibition at 10 µM [1] [%] | inhibition at 100 µM [1] [%] | IC50 [1] [µM] | inhibition at 10 µM [2] [%] | inhibition at 100 µM [2] [%] | IC50 ([2]; read-out: IC50 Casp3) [µM] | inhibition at 10 µM [3] [%] | inhibition at 100 µM [3] [%] | IC50 ([3]; read-out: IC50 Casp1) [µM] | inhibition at 10 µM [4] [%] | % Inhibition at 100 uM Casp7 ([4]; 100 uM) [%] | inhibition at 100 µM ([4]; 100 uM) [%] | IC50 [4] [µM] | change of potency against caspase-3 relative to compound 26 ([2]; replacement of t-Leu at P3 of compound 26) [fold] | IC50 ([2]; read-out: potency (IC50) against caspase-3) [µM] | IC50 ([3]; read-out: potency (IC50) against caspase-1) [µM] | potency against caspase-3 relative to compound 26, in words ([2]; replacement of Pro at P2 of compound 26)
CC(C)[C@H](NC(=O)OCc1ccccc1)C(=O)N[C@H](/C=C(\Cl)S(C)(=O)=O)CC(=O)O [Compound 2, Cbz-Val-Asp achlorovinyl methyl vinyl sulfone] | 10 | 12 | > 100 | 1 | 39 | > 100 | 0 | 5 | > 100 | 3 | 72 | 60 | 64.4 | – | – | – | –
CC(C)[C@H](NC(=O)[C@@H](N)Cc1ccc(O)cc1)C(=O)N[C@@H](C)C(=O)N[C@H](/C=C/S(C)(=O)=O)CC(=O)O [Compound 42, Tyr-Val-Ala-Asp methyl vinyl sulfone] | 43 | 93 | 12.4 | 0 | 0 | > 100 | 26 | 72 | 33.8 | 0 | – | 0 | > 100 | – | – | – | –
CC(C)(C)[C@H](NC(=O)c1ccc2ncccc2c1)C(=O)N1CCCC1C(=O)N[C@H](/C=C/S(C)(=O)=O)CC(=O)O (stereo in doubt) [Compound 10, Quinoline-6-carbonyl-t-Leu-Pro-Asp methyl vinyl sulfone] | 78 | 98 | 3 | 12 | 16 | > 100 | 90 | 100 | 0.12 | 3 | – | 73 | 53.6 | – | – | – | –
CC(C)[C@H](NC(=O)[C@@H](NC(=O)[C@H](CC(=O)O)NC(=O)OCc1ccccc1)c1ccccc1)C(=O)N[C@H](/C=C/S(C)(=O)=O)CCC(=O)O [Compound 84, Z-Asp-Phg-Val-Glu methyl vinyl sulfone] | 0 | 0 | > 100 | 39 | 88 | 15.2 | 0 | 0 | > 100 | 9 | – | 76 | 49.9 | – | – | – | –
CC(C)(C)[C@@H](NC(=O)[C@H](CC(=O)O)NC(=O)OCc1ccccc1)C(=O)N1CC[C@@H]1C(=O)N[C@H](/C=C/S(C)(=O)=O)CC(=O)O [Compound 32, Z-Asp-t-Leu-(Azetidine-2-carbonyl)-Asp-methyl vinyl sulfone] | 23 | 77 | 35.2 | 96 | 100 | 0.28 | 44 | 86 | 13.3 | 97 | – | 100 | 0.55 | – | – | – | did not affect the potency against caspase-3
CS(=O)(=O)/C=C/[C@H](CC(=O)O)NC(=O)[C@@H](N)CCC(=O)O [Compound 22, Glu-Asp methylsulfone] | 11 | 0 | > 100 | 0 | 0 | > 100 | 0 | 0 | > 100 | 0 | – | 0 | > 100 | – | – | – | –
CCOC(=O)/C=C/[C@H](CC(=O)O)NC(=O)[C@@H](NC(=O)[C@H](CCC(=O)O)NC(=O)[C@@H](NC(=O)OCc1ccccc1)C(C)C)c1ccccc1 [Compound 126, Z-Val-Glu-Phg-Asp-Ethyl Vinyl ester] | – | – | 8.58 | – | – | 2.78 | – | – | 1 | – | – | – | > 100 | – | – | – | –
CS(=O)(=O)/C=C/[C@H](CC(=O)O)NC(=O)[C@H](CCC(=O)O)NC(=O)c1ccc2ccccc2n1 [Compound 18, 2-Quinoline carbonyl-Glu-Asp methyl vinyl sulfone] | 0 | 1 | > 100 | 4 | 2 | > 100 | 1 | 1 | > 100 | 0 | – | 7 | > 100 | – | – | – | –

More lines, main results first:

inhibition at 10 µM [1] [%] | inhibition at 100 µM [1] [%] | IC50 [1] [µM] | inhibition at 10 µM [2] [%] | inhibition at 100 µM [2] [%] | IC50 ([2]; read-out: IC50 Casp3) [µM] | inhibition at 10 µM [3] [%] | inhibition at 100 µM [3] [%] | IC50 ([3]; read-out: IC50 Casp1) [µM] | inhibition at 10 µM [4] [%] | % Inhibition at 100 uM Casp7 ([4]; 100 uM) [%] | inhibition at 100 µM ([4]; 100 uM) [%] | IC50 [4] [µM] | change of potency against caspase-3 relative to compound 26 ([2]; replacement of t-Leu at P3 of compound 26) [fold] | IC50 ([2]; read-out: potency (IC50) against caspase-3) [µM] | IC50 ([3]; read-out: potency (IC50) against caspase-1) [µM] | SMILES | potency against caspase-3 relative to compound 26, in words ([2]; replacement of Pro at P2 of compound 26)
14 | 69 | 46.2 | 91 | 99 | 0.78 | 49 | 90 | 10.6 | 87 | – | 99 | 2.5 | 7 | – | – | CS(=O)(=O)/C=C/[C@H](CC(=O)O)NC(=O)C1CCCN1C(=O)[C@@H](NC(=O)[C@H](CC(=O)O)NC(=O)OCc1ccccc1)C1CC1 (stereo in doubt) [Compound 28, Z-Asp-Cyclopropylglycine-Pro-Asp-methyl vinyl sulfone] | –
8 | 50 | ~100 | 68 | 95 | 3.4 | 55 | 92 | 8 | 68 | – | 97 | 6.12 | – | 3.41 | – | CS(=O)(=O)/C=C/[C@H](CC(=O)O)NC(=O)[C@H]1CCCN1C(=O)[C@@H](NC(=O)[C@H](CC(=O)O)NC(=O)OCc1ccccc1)c1ccccc1 [Compound 30, Z-Asp-Phenylglycine-Pro-Asp-methyl vinyl sulfone] | –
95 | 100 | 0.75 | 63 | 94 | 6.55 | 99 | 100 | – | 19 | – | 90 | 23.7 | – | – | 0.026 | CC(C)[C@H](NC(=O)[C@H](CCC(=O)O)NC(=O)[C@H](Cc1c[nH]c2ccccc12)NC(=O)OCc1ccccc1)C(=O)N[C@H](/C=C/S(C)(=O)=O)CC(=O)O [Compound 40, Z-Trp-Glu-Val-Asp-methyl vinyl sulfone] | –
0 | 0 | > 100 | 0 | 0 | > 100 | 0 | 0 | > 100 | 0 | – | 0 | > 100 | – | – | – | CCOC(=O)/C=C/[C@@H](N)CC(=O)O [Compound 44, Asp ethyl vinyl ester tosyl salt] | –
